Data taken from article PMC12530843, “Identification of a New Interesting BAG3 Modulator Able to Disrupt Cancer‐Related Pathways” (Chemmedchem, 2025).
Like-named read-outs stand apart in the source and are kept apart here.

Assays:
HaCaT cells = assay: MTT cell viability, HaCaT healthy keratinocytes; format: cell-based, human
Procedure: (§1) Human cell lines of lung adenocarcinoma (A549), cervical carcinoma (HeLa), malignant melanoma (A375), breast adenocarcinoma (MCF7), and immortalized human keratinocytes (HaCaT) were cultured in high‐glucose DMEM supplemented with FBS (10%, v/v), glutamine (2 mM L^−1), penicillin (100 U mL^−1), and streptomycin ([…]). Cells were maintained at 37 °C in a humidified 5% CO2 atmosphere and subcultured every 2 days to maintain logarithmic growth. The human cell lines were kindly donated by Prof. Ornella Moltedo, Department of Pharmacy, University of Salerno.^[ [15] ^, [44] ^]
Cell viability was evaluated using a colorimetric assay to measure mitochondrial metabolic activity through the reduction of 3‐[4,5‐dimethylthiazol‐2,5‐diphenyl‐2H‐tetrazolium bromide (MTT) to purple formazan. Stock solutions of SP18 and compounds 1, 2, 5–8 (50 mM in DMSO) were stored at −20 °C in the dark and diluted immediately before addition to the sterile culture medium. The final concentration of DMSO for the tested compounds was 0.1%, which was consistent with the percentage of DMSO used in the negative control. […] Formazan crystals were then dissolved in 100 μL of a buffer containing 50% (v/v) N,N‐dimethylformamide and 20% SDS (pH 4.5), and absorbance was measured at 570 nm using a Multiskan GO Microplate Spectrophotometer (Thermo Fisher Scientific, USA).^[ [44] ^] […]

HeLa cells [1] = assay: Cell cycle / hypodiploid nuclei by PI flow cytometry; format: cell-based, human
Procedure: Hypodiploid nuclei were analyzed by propidium iodide (PI) staining using flow cytometry. HeLa cells (1 × 10^5 cells well^−1) were cultured in 12‐well plates and allowed to adhere for 24 h. The medium was then refreshed, and cells were treated with SP18 (0.75, 1.5, 3, 6, and 12 µM) for 48 h or compound 2 (10, 30, and 50 µM) for 72 h, with 0.1% (v/v) DMSO as a control. The final concentration of DMSO for the tested compounds was 0.1%, which is consistent with the percentage of DMSO used in the negative control. Following treatment, the culture medium was replaced, and cells were washed twice with PBS before being resuspended in 500 μL of a solution containing 50 mg L^−1 PI, 0.1% (w/v) sodium citrate, and 0.1% Triton X‐100. To include both dead and live cells in the analysis, the culture medium and PBS washes were centrifuged, and the resulting cell pellets were combined with the main cell suspension. Cells were then incubated at 4 °C for 30 min in the dark, and nuclei were analyzed using a Becton Dickinson FACScan flow cytometer (Franklin Lakes, USA) with Cell Quest software. DNA content was recorded, and cellular debris was excluded by adjusting the forward scatter threshold. The percentage of cells in the hypodiploid region (sub‐G0) and those in the G1, S, and G2 phases were calculated.^[ [45] ^] (See Figure S57–S58, Supporting Information).

BAG3-BD = molecular target: T1, BAG3-BD (Homo sapiens, UniProt O95817); assay: SPR binding on BAG3 BAG domain; settings: Biacore T200, 25 °C, 1:1 model; for Kd: read-out: BAG3–BD KD ± SD
T1 construct: the BAG3 domain (BAG3‐BD) was sourced from ARETA International S.r.l; (Gerenzano, Italy); purchased ARETA International S.r.l
T1 sequence (O95817 421-498 limits assumed): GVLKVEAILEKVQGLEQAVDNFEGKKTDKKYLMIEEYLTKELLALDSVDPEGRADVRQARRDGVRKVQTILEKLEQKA
Procedure: (§2) Recombinant human BAG3 protein (Bcl2‐associated athanogene 3) was obtained from Novus Biologicals (Littleton, Colorado), while the BAG3 domain (BAG3‐BD) was sourced from ARETA International S.r.l. (Gerenzano, Italy). We used (Z)‐ethyl 2‐(5‐(3,4‐dihydroxybenzylidene)‐2,4‐dioxothiazolidin‐3‐yl)acetate (LK4), a BAG3 inhibitor previously identified by our group.^[ [13] ^] SPR spectroscopy was performed using a Biacore T200 optical biosensor with CM5 sensor chips (Cytiva, Marlborough, USA) to assess the affinity of synthesized molecules for BAG3 and BAG‐BD. BAG3 and BAG‐BD were immobilized on CM5 sensor chip using standard amine‐coupling protocol.^[ [15] ^, [42] ^, [43] ^] BAG3 protein (0.067 μg μL^−1 in 10 mM CH3COONa, pH 4.5) was immobilized at a flow rate of 10 μL min^−1, achieving a surface density of 14 kRU, while BAG3‐BD (0.38 μg μL^−1 in 10 mM CH3COONa, pH 4.5) reached a density of 4 kRU. For the experiments, BAG3 and BAG‐BD surfaces, as well as an unmodified reference surface, were prepared for simultaneous analysis. Compounds 1–10 and LK4 were initially dissolved to 10 mM in 100% DMSO, then diluted 1:20 (v/v) in PBS‐P buffer (0.2 M phosphate buffer, 27 mM KCl, 1.37 M NaCl, 0.5% surfactant P20) resulting in a final DMSO concentration of 5.0%. The compounds were injected in a concentration series (1:2 dilution, 10 different concentrations) ranging from 0 to 100 μM, using 96‐well plates. SPR experiments were conducted at 25 °C with a flow rate of 20 μL min^−1, featuring a 90 s association phase followed by a 400 s dissociation phase. Changes in mass, recorded as resonance units (RU), were used to quantify binding responses, while K D values were determined using Biaevaluation software by globally fitting the double‐referenced association and dissociation data to a 1:1 interaction model. (See Figure S43–S56, Supporting Information).

HeLa cells [2] = assay: MTT cell viability, HeLa; format: cell-based
Procedure: as §1
Cell viability was evaluated using a colorimetric assay to measure mitochondrial metabolic activity through the reduction of 3‐[4,5‐dimethylthiazol‐2,5‐diphenyl‐2H‐tetrazolium bromide (MTT) to purple formazan. Stock solutions of SP18 and compounds 1, 2, 5–8 (50 mM in DMSO) were stored at −20 °C in the dark and diluted immediately before addition to the sterile culture medium. The final concentration of DMSO for the tested compounds was 0.1%, which was consistent with the percentage of DMSO used in the negative control. A549 (3.5 × 10³ cells well^−1), HeLa (3.5 × 10³ cells well^−1), A375 (5.0 × 10³ cells well^−1), and MCF7 (3.5 × 10³ cells well^−1) cells were seeded in triplicate in 96‐well plates. After 24 h to allow for attachment, cells were treated with various concentrations of the compounds (10 and 50 µM), using 0.1% (v/v) DMSO as a negative control and 10% (v/v) DMSO as a positive control following treatment, 20 μL of MTT solution (5 mg mL^−1 in PBS) were added to each well, and cells were incubated for 3 h at 37 °C. Formazan crystals were then dissolved in 100 μL of a buffer containing 50% (v/v) N,N‐dimethylformamide and 20% SDS (pH 4.5), and absorbance was measured at 570 nm using a Multiskan GO Microplate Spectrophotometer (Thermo Fisher Scientific, USA).^[ [44] ^] […] IC50 values, defined as the concentration causing 50% inhibition of cell survival, were calculated and compared to DMSO‐treated controls using GraphPad Prism 8.0 software via nonlinear regression. IC50 values for SP18 and compound 2 were also determined in HaCaT cells (5.0 × 10³ cells well^−1) after 48 or 72 h of treatment.^[ [15] ^]

BAG3 full length = molecular target: T2, BAG3 full length (Homo sapiens, UniProt O95817); assay: SPR binding on full-length BAG3; settings: Biacore T200, 25 °C, 1:1 model; for Kd: read-out: BAG3 FULL KD ± SD
T2 construct: purchased Novus Biologicals (Littleton, Colorado)
Procedure: as §2

T2 sequence (O95817 whole entry): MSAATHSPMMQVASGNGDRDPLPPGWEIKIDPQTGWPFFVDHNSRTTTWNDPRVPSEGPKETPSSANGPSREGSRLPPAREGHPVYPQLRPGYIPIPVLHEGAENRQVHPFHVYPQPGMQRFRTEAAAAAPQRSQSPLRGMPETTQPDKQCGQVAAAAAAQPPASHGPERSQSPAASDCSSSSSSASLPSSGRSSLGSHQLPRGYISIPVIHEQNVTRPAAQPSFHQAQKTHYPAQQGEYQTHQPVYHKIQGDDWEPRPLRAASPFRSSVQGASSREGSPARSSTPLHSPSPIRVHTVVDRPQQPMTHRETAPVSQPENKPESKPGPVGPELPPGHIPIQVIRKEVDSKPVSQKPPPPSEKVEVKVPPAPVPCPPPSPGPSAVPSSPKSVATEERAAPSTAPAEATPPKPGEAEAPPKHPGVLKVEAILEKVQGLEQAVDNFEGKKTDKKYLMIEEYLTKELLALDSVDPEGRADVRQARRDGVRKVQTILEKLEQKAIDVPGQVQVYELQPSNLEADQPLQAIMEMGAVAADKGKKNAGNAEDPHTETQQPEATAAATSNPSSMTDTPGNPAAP

Row | SMILES | cytotoxicity on healthy HaCaT cells (HaCaT cells; 72 h, up to 70 µM (highest concentration tested)) | effect on cell cycle / hypodiploid nuclei (HeLa cells [1]; 72 h, 10, 30 and 50 µM) | BAG3–BD KD ± SD (BAG3-BD) | Kd (BAG3-BD) [µM] | mortality at 50 µM (HeLa cells [2]; Homo sapiens, HeLa, 50 µM, 72 h) [%] | IC50 (HeLa cells [2]; Homo sapiens, HeLa, 72 h of exposure, read-out: IC50 on HeLa cells) [µM] | BAG3 FULL KD ± SD (BAG3 full length) | Kd (BAG3 full length) [µM] | IC50 (HaCaT cells; Homo sapiens, HaCaT, 48 h, seven concentrations, MTT) [µM] | effect on cell cycle / hypodiploid nuclei (HeLa cells [1]; 48 h, 0.75 to 12 µM) | cytotoxicity against HeLa cells (screen) (HeLa cells [2]; 10 and 50 µM, 72 h) | IC50 (HeLa cells [2]; Homo sapiens, HeLa, 48 h of treatment, read-out: IC50 against HeLa) [µM]
1 | O=C(OCc1cn(Cc2ccc3c(c2)C(=O)c2ccccc2C3=O)nn1)c1cccc([N+](=O)[O-])c1 [Compound 2, (1‐((9,10‐Dioxo‐9,10‐dihydroanthracen‐2‐yl)methyl)‐1H‐1,2,3‐triazol‐4‐yl)methyl 3‐nitrobenzoate] | no significant cytotoxicity | induces hypodiploid nuclei formation in a concentration‐dependent manner | low micromolar range | 0.38 ± 0.05 | ~70 | 40.8 ± 5.5 | low micromolar range | 1.04 ± 0.03 |  |  |  | 
2 | O=C(OCc1cn(Cc2ccc(C(=O)c3ccccc3)cc2)nn1)c1cccc([N+](=O)[O-])c1 [SP18] |  |  |  | 43.5 ± 5.09 |  |  |  | 36 ± 0.85 | 22.1 ± 0.67 | induces hypodiploid nuclei formation in a concentration‐dependent manner and causes an S‐phase block | significant cytotoxicity | 14.8 ± 1.34
